Measurements published in publication PMC9138090, “Study on the Neuroprotective, Radical-Scavenging and MAO-B Inhibiting Properties of New Benzimidazole Arylhydrazones as Potential Multi-Target Drugs for the Treatment of Parkinson’s Disease” (Antioxidants, 2022).

How the values were obtained:
[1] = Fe(II)-induced oxidative damage of lecithin (TBA-RS); conditions: 90 µmol/L; for sample/control absorbance ratio (% of the control), lecithin peroxidation: lecithin 1 mg/mL, FeCl2 0.1 mmol/L
Description: The classical method of determining the TBA-reactive substances at 532 nm as described by Asakawa and Matsushita has been used. Two groups of measurement compositions named controls and samples were prepared in phosphate buffer (K2HPO4/KH2PO4, pH 7.4) for each of the used substrates. Both of them contained equivalent concentrations of lecithin (1 mg/mL) or 2-deoxyribose (0.5 mmol/L) and FeCl2 (0.1 mmol/L). In the controls, the tested hydrazones have been omitted and in the samples the effect of the newly designed compounds at the concentrations indicated below the figures has been determined. The obtained samples were incubated at 37 °C for 30 min. The reaction was stopped, and after adding 0.5 mL 2.8% trichloroacetic acid and 0.5 mL of thiobarbituric acid, the samples were heated in boiling water for 20 min. The lecithin containing samples were centrifuged at 3000 rpm for 20 min and the supernatant was aspired out. The results have been presented as a percentage of the control sample, treated only with ferrous iron where we expected maximum oxidative damage under the described conditions.

[2] = MTT cytotoxicity on SH-SY5Y cells; type: cell-based, human; conditions: human, SH-SY5Y neuroblastoma cells, MTT test, 24 h incubation; read-out: IC50, in vitro cytotoxicity on SH-SY5Y cells
Description: (§1) Human neuroblastoma cell line SH-SY5Y was obtained from the European Collection of Cell Cultures (ECACC, Salisbury, UK). The cells were maintained in 75 cm^2 flasks at 37 °C in a humidified atmosphere with 5% CO2 and cultured in RPMI 1640 medium, supplemented with 10% fetal bovine serum and 2 mM L-glutamine.
(§2) MTT (Sigma-Aldrich Chemie GmbH, Schnelldorf, Germany) assay is based on interaction between tetrazolium dye 3-(4,5-dimethylthiazol-2-yl)-2,5-diphenyltetrazolium bromide and succinic dehydrogenase in the living cells’ mitochondria. In this reaction, the formed purple formazan crystals indicate the presence of viable cells. SH-SY5Y cells were seeded in 96-well microplates at a density 2.5 × 10^4 cells/well and allowed to attach to the well surface at 37 °C in a humidified atmosphere with 5% CO2 (24 h). Different concentrations of compounds ([…]) were added to cells and incubated for 24 h. For each concentration, a set of at least 8 wells were used. After the treatment, the solution in each well was substituted with MTT (3-(4,5-dimethylthiazol-2-yl)-2,5-diphenyltetrazolium bromide) solution (0.5 mg/mL in culture medium). The microplates were further incubated for 3 h at 37 °C and the obtained formazan crystals were dissolved by 100 µL/well of DMSO. The absorbance was measured in a multiplate reader Synergy 2 (BioTek Instruments, Inc, Highland Park, Winooski, VT, USA) at 570 nm (690 nm for background absorbance).
(§3) An important step in the development of new pharmacologically active compounds is the establishment of their safety profile. An in vitro toxicity evaluation was carried out on the neuroblastoma cell line SH-SY5Y, which is a well-established model in neuroscience. The neuroblastoma SH-SY5Y are human derived cells with relatively homogeneous neuroblast-like structure. The cells express a dopamine-β-hydroxylase and tyrosine hydroxylase enzyme activity, specific types of human proteins and protein isoforms. The possible neurotoxic effects of the potential drug candidates were measured by cell viability assay (MTT-test). The IC50 values were used as a robust parameter for comparison. The test compounds were dissolved in DMSO and serially diluted in cell culture medium to achieve final concentrations ranging from 1 to 500 µM; the culture medium containing DMSO in the corresponding concentration was used as untreated controls. A concentration dependent effect on cell viability was observed after 24 h incubation.

[3] = target: T1, human recombinant MAO-B (hMAO-B) enzyme (Homo sapiens, UniProt P27338); experiment: hMAO-B activity, Amplex UltraRed fluorometric method; type: biochemical; conditions: 1 µM
T1 construct: purchased Invitrogen, USA
T1 sequence (P27338 1-520): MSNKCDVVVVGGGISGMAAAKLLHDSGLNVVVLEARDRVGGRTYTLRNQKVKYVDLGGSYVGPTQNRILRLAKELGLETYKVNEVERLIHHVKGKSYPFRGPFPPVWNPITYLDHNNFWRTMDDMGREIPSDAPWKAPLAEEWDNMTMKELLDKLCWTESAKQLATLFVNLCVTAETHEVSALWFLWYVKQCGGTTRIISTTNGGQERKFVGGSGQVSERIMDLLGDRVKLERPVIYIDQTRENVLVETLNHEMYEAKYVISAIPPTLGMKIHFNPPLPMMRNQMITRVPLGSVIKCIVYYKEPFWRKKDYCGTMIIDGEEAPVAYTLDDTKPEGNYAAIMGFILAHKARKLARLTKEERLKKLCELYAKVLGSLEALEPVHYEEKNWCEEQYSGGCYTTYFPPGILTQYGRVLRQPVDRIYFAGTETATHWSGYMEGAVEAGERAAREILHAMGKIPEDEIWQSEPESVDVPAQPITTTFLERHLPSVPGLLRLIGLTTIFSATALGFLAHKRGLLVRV
Description: The effects of the test compounds on human recombinant MAO-B (hMAO-B) enzyme were studied by the Amplex UltraRed reagent (Sigma-Aldrich Chemie GmbH) fluorometric method with small modifications. The working solutions of the compounds, reagents, hMAO-B, and reaction buffers were prepared according to the producer’s instructions. The tyramine hydrochloride was used as a substrate. The reaction mixture contained a stock solution of Amplex Red (10 mM in dimethyl sulfoxide), the reaction buffer (0.05 M sodium phosphate) at pH 7.4, and the storage solution of horseradish peroxidase (10 U/mL). There were pure MAO-B working solutions in the reaction buffer and MAO-B working solution containing hydrogen peroxide as controls. The final concentration of the test compounds in the well was 1 μM. The compounds together with hMAO-B were embedded in a 96-well plate (8 wells for each compound), and then the plate was incubated for 30 min (dark, at 37 °C). Thereafter, the reaction was initiated by 50 μL Mix Solution: Amplex®Red reagent, horseradish peroxidase, and tyramine as an enzyme substrate in the reaction buffer. The fluorescence was measured every 30 min at 0, 30, 60, 90, 120, and 150 min), in dark, while shaking the reaction mixture at constant temperature of 37 °C. The fluorimetric measurements were assessed using a Synergy 2 Microplate Reader.
Monoamine oxidase B catalyzes dopamine metabolism and oxidation leading to the formation of reactive oxygen species and reactive quinones, which provoke dopamine neurotoxicity and neurodegeneration. In the next experiments, the compounds showing the best safety profile and the most promising neuroprotective activity (3d, 3e, 3h, 3i, 3m, 3n, 3p) were evaluated for their potential inhibitory activity on hMAOB. Selegiline and rasagiline as potent MAO-B inhibitors were used as standard compounds for comparison.

SH-SY5Y cells = experiment: MTT cytotoxicity on SH-SY5Y cells; type: cell-based, human; conditions: MTT test, 24 h incubation; read-out: IC50, in vitro cytotoxicity on SH-SY5Y cells
Description: as §1, §2, §3

Structure (SMILES)	melting point	sample/control absorbance ratio (% of the control), lecithin peroxidation [1]	IC50 at 24 h [2]	lecithin peroxidation effect compared with 3a (in words) [1]	inhibitory effect on hMAOB activity (in words) [3]	IC50 (SH-SY5Y cells)
O=C(CCn1c(=S)n(CCC(=O)N/N=C/c2ccccc2)c2ccccc21)N/N=C/c1ccccc1 [3a]	246 to 248 °C	66.52%	103 µM	–	–	–
COc1cc(C=NNC(=O)CCn2c(=S)n(CCC(=O)NN=Cc3ccc(O)c(OC)c3)c3ccccc32)ccc1O [3b, 3,3′-(2-Thioxo-1H-benzo[d]imidazole-1,3(2H)-diyl)bis(N′-(4-hydroxy-3-methoxybenzylidene)propanehydrazide)]	229 to 231 °C	–	101 µM	–	–	–
COc1ccc(C=NNC(=O)CCn2c(=S)n(CCC(=O)NN=Cc3ccc(OC)c(OC)c3)c3ccccc32)cc1OC [3c, 3,3′-(2-Thioxo-1H-benzo[d]imidazole-1,3(2H)-diyl)bis(N′-(3,4 dimethoxybenzylidene)propanehydrazide)]	239 to 241 °C	–	112 µM	statistically identical effect to 3a	–	–
COc1cc(C=NNC(=O)CCn2c(=S)n(CCC(=O)NN=Cc3cc(OC)c(O)c(OC)c3)c3ccccc32)cc(OC)c1O [3d, 3,3′-(2-Thioxo-1H-benzo[d]imidazole-1,3(2H)-diyl)bis(N′-(4-hydroxy-3,5-dimethoxybenzylidene)propanehydrazide)]	284 to 286 °C	around 40%	> 250 µM	–	statistically significant MAO-B inhibitory effects	268 µM
O=C(CCn1c(=S)n(CCC(=O)NN=Cc2cccc(O)c2)c2ccccc21)NN=Cc1cccc(O)c1 [3f, 3,3′-(2-Thioxo-1H-benzo[d]imidazole-1,3(2H)-diyl)bis(N′-(3-hydroxybenzylidene)propanehydrazide)]	223 to 224 °C	–	77.7 µM	–	–	–
O=C(CCn1c(=S)n(CCC(=O)NN=Cc2ccc(O)cc2)c2ccccc21)NN=Cc1ccc(O)cc1 [3g, 3,3′-(2-Thioxo-1H-benzo[d]imidazole-1,3(2H)-diyl)bis(N′-(4-hydroxybenzylidene)propanehydrazide)]	281 to 283 °C	–	77.8 µM	–	–	–
O=C(CCn1c(=S)n(CCC(=O)NN=Cc2ccc(O)c(O)c2)c2ccccc21)NN=Cc1ccc(O)c(O)c1 [3j, 3,3′-(2-Thioxo-1H-benzo[d]imidazole-1,3(2H)-diyl)bis(N′-(3,4-dihydroxybenzylidene)propanehydrazide)]	212 to 214 °C	around 40%	187 µM	–	–	–
O=C(CCn1c(=S)n(CCC(=O)NN=Cc2ccc(O)c(O)c2O)c2ccccc21)NN=Cc1ccc(O)c(O)c1O [3k, 3,3′-(2-Thioxo-1H-benzo[d]imidazole-1,3(2H)-diyl)bis(N′-(2,3,4-trihydroxybenzylidene)propanehydrazide)]	279 to 280 °C	–	65.3 µM	statistically identical effect to 3a	–	–
COc1cccc(C=NNC(=O)CCn2c(=S)n(CCC(=O)NN=Cc3cccc(OC)c3O)c3ccccc32)c1O [3l, 3,3′-(2-Thioxo-1H-benzo[d]imidazole-1,3(2H)-diyl)bis(N′-(2-hydroxy-3-methoxybenzylidene)propanehydrazide)]	268 to 270 °C	–	> 200 µM	–	–	200 µM
COc1cccc(O)c1C=NNC(=O)CCn1c(=S)n(CCC(=O)NN=Cc2c(O)cccc2OC)c2ccccc21 [3n, 3,3′-(2-Thioxo-1H-benzo[d]imidazole-1,3(2H)-diyl)bis(N′-(2-hydroxy-6-methoxybenzylidene)propanehydrazide)]	272 to 274 °C	–	> 250 µM	–	statistically significant MAO-B inhibitory effects	269 µM
COc1ccc(C=NNC(=O)CCn2c(=S)n(CCC(=O)NN=Cc3ccc(OC)c(O)c3)c3ccccc32)cc1O [3o, 3,3′-(2-Thioxo-1H-benzo[d]imidazole-1,3(2H)-diyl)bis(N′-(3-hydroxy-4-methoxybenzylidene)propanehydrazide)]	255 to 257 °C	–	73.6 µM	–	–	–
COc1cc(O)ccc1C=NNC(=O)CCn1c(=S)n(CCC(=O)NN=Cc2ccc(O)cc2OC)c2ccccc21 [3p, 3,3′-(2-Thioxo-1H-benzo[d]imidazole-1,3(2H)-diyl)bis(N′-(4-hydroxy-2-methoxybenzylidene)propanehydrazide)]	205 to 207 °C	–	> 250 µM	–	statistically significant MAO-B inhibitory effects	254 µM
COc1cc(/C=N/NC(=O)CCn2c(=S)n(CCC(=O)N/N=C/c3cc(O)c(O)c(OC)c3)c3ccccc32)cc(O)c1O [3q, 3,3′-(2-Thioxo-1H-benzo[d]imidazole-1,3(2H)-diyl)bis(N′-(3,4-hydroxy-5-methoxybenzylidene)propanehydrazide)]	174 to 176 °C	around 40%	77.7 µM	–	–	–
O=c1c(O)c(-c2ccc(O)c(O)c2)oc2cc(O)cc(O)c12 [Quercetin, reference compound]	–	around 25%	–	–	–	–
Cc1c(C)c2c(c(C)c1O)CCC(C)(C(=O)O)O2 (centres unmarked) [Trolox, reference compound]	–	around 25%	–	–	–	–
